According to paper PMC9826262, “Discovery of Benzo[d]imidazole‐6‐sulfonamides as Bromodomain and Extra‐Terminal Domain (BET) Inhibitors with Selectivity for the First Bromodomain” (Chemmedchem, 2022):
≈ marks a conversion by molar mass, not a printed value. Like-named read-outs stand apart in the source and are kept apart here. Each block holds one compound with its values, some of them ahead of it.

Legend:
BRD4 BD2 = conditions: cited from earlier work
[1] = Nephelometric solubility determination; assay type: physicochemical; conditions: for solubility: aqueous buffer, kinetic from dmso stock, PBS with 1 % DMSO, tested at 50 and 100 μM, room temperature, read-out: Solubility (highest concentration where no precipitate was detected)
Protocol: Solubility determination. Solubility of the compounds was determined using Nepheloskan Ascent® (Labsystems). The experiments were performed at room temperature in 96‐well plates in a final volume of 300 μL. Each compound was tested in quadruplicate at the concentrations of 50 and 100 μM in PBS with 1 % DMSO. The measurements were performed at 4 different time points (T0, 30 min, 60 min, 90 min) from the preparation of the samples. Data obtained were compared to control (PBS with 1 % DMSO) and the ratio sample/control was determined for each compound. Compounds are considered soluble if the ratio is≤3.

BRD4 BD1 = target: T1, BRD4 BD1 (Homo sapiens, UniProt O60885); conditions: cited from earlier work
T1 construct: The microsyringe was loaded with a solution of BRD4 BD1; His6 (cleaved yes); made in house; host or cells: E. coli BL21(DE3)-R3-pRARE2

[2] = CYPs and UGTs dual-activity microsomal stability; assay type: in vitro ADME; conditions: human liver microsomes; alamethicin, NADPH and UDPGA cofactors; 37 °C, 60 min
Protocol: In this study, the CYPs and UGTs “dual‐activity” microsomal stability assay was carried out to follow the loss of the test compounds over time under CYP‐ and UGT‐mediated metabolic pathways. In detail, the compounds were added to human liver microsomes in the presence of alamethicin, NADPH and UDPGA as cofactors.[24] Alamethicin, a pore‐forming peptide, was used to activate UGTs in human liver microsomes. Testosterone was used as positive control while the negative control was prepared by incubation of the compounds without cofactors up to 60 min. The negative control is essential to detect problems such as non‐specific protein binding or heat instability.
Instrumentation and chromatographic conditions. The metabolic stability of investigated compounds was monitored using a Nexera UHPLC system (Shimadzu, Kyoto, Japan) consisting of a CBM‐20A controller, two LC‐30AD pumps, an SPD‐M20A photo diode array detector, a CTO‐20AC column oven and, a SIL‐30AC autosampler. The chromatographic analyses were accomplished on a Kinetex® Evo C18 column, 150×2.1 mm×2.6 μm (Phenomenex®, Bologna, Italy) maintained at 40 °C. The optimal mobile phase consisted of 0.1 % HCOOH/H2O v/v (A) and 0.1 % HCOOH/ACN v/v (B) delivered at constant flow rate of 0.5 mL/min ^−1. Analysis was performed in gradient elution as follows: 0–8.00 min, 5–95 % B; 8.00–10.00 min, isocratic to 95 % B; then five minutes for column re‐equilibration. Data acquisition was set in the range 190–800 nm and chromatograms were monitored at 254 nm.
In vitro drug metabolism using human liver microsomes. 25 μL of 5 mg/mL human […] microsomes (Thermo Fisher Scientific, Bremen, Germany) were pre‐incubated with 0.625 μL of 100 μg/mL alamethicin. Then 2.5 μL of sample (5 mM) with 168 μL of 100 mM phosphate buffer (pH 7.4), 4 μL of 500 mM MgCl2 were added, the mixture was incubated at 37 °C for 5 min. Optimal UGT activity can be achieved by the addition of MgCl2 and alamethicin as pore forming antibiotic. These components allow for the efficient transfer of a glucuronide product and the cofactor uridine 5′‐diphospho‐α‐D‐glucuronic acid (UDPGA) within the microsomal matrix. The reaction has started by adding 50 μL of mix NADPH 20 mM and UDP‐GlcUA 20 mM as cofactors (1 : 1 v/v) and carried out 37 °C for 60 min in a Thermomixer comfort (Eppendorf, Hamburg, Germany). The reaction was stopped by the addition of 200 μL ice‐cold acetonitrile and then samples were centrifuged at 14,000 rpm at 25 °C for 5 min (Eppendorf® microcentrifuge 5424, Hamburg, Germany). The supernatants were collected and injected in UHPLC. The control at 0 min was obtained by addition of ice‐cold acetonitrile immediately after incubation with microsomes. […]

[3] = test system: BD1 and BD2 of BRD2 and BRD3; conditions: cited from earlier work
in vitro = conditions: PAMPA, pH 7.4
Protocol: Membrane permeability was estimated by the well‐validated parallel artificial membrane permeability assay (PAMPA) technique.[17, 26]
Parallel Artificial Membrane Permeability Assay (PAMPA). Donor solution (0.2 mM) was prepared by diluting 20 mM dimethyl sulfoxide (DMSO) compound stock solution using phosphate buffer (pH 7.4, 0.01 M). Filters were coated with 5 μL of a 1 % (w/v) dodecane solution of L‐α‐phosphatidylcholine. Donor solution (150 μL) was added to each well of the filter plate. To each well of the acceptor plate, 300 μL of solution (5 % DMSO in phosphate buffer) was added. […] The sandwich was incubated for 24 h at room temperature under gentle shaking. After the incubation time, the sandwich plates were separated and 250 μL of the acceptor plate was transferred to a UV quartz microtiter plate and measured by UV spectroscopy, using a Multiskan GO microplate spectrophotometer (Thermo Fisher Scientific) at 250–500 nm at a step of 5 nm. Reference solutions (250 μL) were prepared diluting the sample stock solutions to the same concentration as that with no membrane barrier.
In this equation, VR is the volume of the acceptor compartment (0.3 cm^3), VD is the donor volume (0.15 cm^3), A is the accessible filter area (0.24 cm^2), and t is the incubation time in seconds.

BRD3(BD1) = target: T2, BRD3(BD1) (Homo sapiens, UniProt Q15059); assay: TR-FRET displacement binding assay; conditions: AlexaFluor647 derivative of 1
T2 construct: tested on BD1 and BD2 domains (6×His‐tagged) of each BET protein
Protocol: (§1) TR‐FRET assay. […] Compound was diluted in assay buffer (150 mM HEPES, 150 mM NaCl, 5 % glycerol, 1 mM DTT, and 1 mM CHAPS, pH 7.4), starting from a stock solution of 10 mM (100 % DMSO). The highest concentration tested was 100 μM and from this concentration 11 three‐fold dilutions were prepared. […] TR‐FRET ratio was calculated using the following equation: ratio=acceptorfluorescenceat665nm/donorfluorescenceat615nm×1000
(§2) Compound was tested in triplicate and data were analyzed using GraphPad Prism software (version 8.0) using the equation log(inhibitor) vs. normalized response‐variable slope.

BRD2(BD2) = target: T3, BRD2(BD2) (Homo sapiens, UniProt P25440); assay: TR-FRET displacement binding assay; conditions: AlexaFluor647 derivative of 1
T3 construct: tested on BD1 and BD2 domains (6×His‐tagged) of each BET protein
Protocol: as §1, §2

BRD3(BD2) = target: T4, BRD3(BD2) (Homo sapiens, UniProt Q15059); assay: TR-FRET displacement binding assay; conditions: AlexaFluor647 derivative of 1
T4 construct: tested on BD1 and BD2 domains (6×His‐tagged) of each BET protein
Protocol: as §1, §2

[4] = test system: BD1 and BD2 of BET proteins (BRD2, BRD3, BRD4 and BRDT); assay: Protein stability shift assay (ΔTm), BET bromodomains; assay type: binding; conditions: compound 10 μM; protein 2 μM
Protocol: The compounds were tested at 10 μM fixed dose and the pan‐BET inhibitor 1 was used as a reference compound.[22] The results obtained from this screening supported our design strategy.
Protein stability shift assay. Thermal melting experiments were carried out using an Mx3005p Real Time PCR machine (Stratagene). Proteins were buffered in 10 mM HEPES pH 7.5, 500 mM NaCl and assayed in a 96‐well plate at a final concentration of 2 μM in 20 μL volume. Compounds were added at a final concentration of 10 μM. SYPRO Orange (Molecular Probes) was added as a fluorescence probe at a dilution of 1 : 1000. Excitation and emission filters for the SYPRO‐Orange dye were set to 465 nm and 590 nm, respectively. The temperature was raised with a step of 3 °C per minute from 25 °C to 96 °C and fluorescence readings were taken at each interval. The temperature dependence of the fluorescence during the protein denaturation process was approximated by the equation yT=yF+yU-yF/1+e^ΔuGT/RT
where ΔuG(T) is the difference in unfolding free energy between the folded and unfolded state, R is the gas constant and yF and yU are the fluorescence intensity of the probe in the presence of completely folded and unfolded protein, respectively. The baselines of the denatured and native states were approximated by a linear fit. The observed temperature shifts, ΔTm obs, were recorded as the difference between the transition midpoints of sample and reference wells containing protein without ligand in the same plate and determined by non‐linear least squares fit.

HeLa cells = assay: MTT cell viability assay; assay type: cell-based, human; conditions: 50 μM, 72 h
Protocol: Cells were incubated with different compound concentrations (50 μM, 5 μM and 0.5 μM) for different times (24, 48 and 72 h) and cellular viability was determined performing an MTT (3‐(4,5‐dimethylthiazol‐2‐yl)‐2,5‐diphenyl‐2H‐tetrazolium bromide) assay.
Cell Viability Assay. HeLa cell line was cultured in DMEM supplemented with 10 % (v/v) fetal bovine serum, 100 U/mL penicillin, 100 μg/mL streptomycin, and 2 mM L‐glutamine at 37 °C in a 5 % CO2 atmosphere. Cell viability was determined using a 3‐(4,5‐dimethylthiazol‐2‐yl)‐2,5‐diphenyltetrazolium bromide (MTT) assay. […] The mitochondrial dependent reduction of MTT to formazan was used to assess cell viability. Live cells reduce yellow MTT to purple formazan. The formazan was solubilized in DMSO, and absorbance was measured at 550 nm and corrected for 620 nm background. Experiments were performed in quadruplicate and all values are expressed as the percentage of the control containing 1 % DMSO.

BRD2(BD1) = target: T5, BRD2(BD1) (Homo sapiens, UniProt P25440); assay: TR-FRET displacement binding assay; conditions: AlexaFluor647 derivative of 1
T5 construct: tested on BD1 and BD2 domains (6×His‐tagged) of each BET protein
Protocol: as §1, §2

[5] = set-up: method as in PMID 32193360; conditions: cited from earlier work
THP‐1 cell line = conditions: read-out: IC50 cell growth THP‐1; cited from earlier work
MV4‐11 cell line = conditions: read-out: IC50 cell growth MV4‐11; cited from earlier work
HL60 cell line = conditions: read-out: IC50 cell growth HL60; cited from earlier work
BD1 in all BET proteins = conditions: cited from earlier work
BD1 of BET proteins = conditions: cited from earlier work

T5 sequence (P25440 74-180 limits assumed): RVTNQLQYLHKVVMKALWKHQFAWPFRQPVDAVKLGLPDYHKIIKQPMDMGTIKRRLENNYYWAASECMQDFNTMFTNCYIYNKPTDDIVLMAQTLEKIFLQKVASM
T4 sequence (Q15059 306-415 limits assumed): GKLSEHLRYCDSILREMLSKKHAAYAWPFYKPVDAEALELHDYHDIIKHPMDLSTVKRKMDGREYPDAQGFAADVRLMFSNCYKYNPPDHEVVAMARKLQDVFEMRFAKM
T3 sequence (P25440 344-453 limits assumed): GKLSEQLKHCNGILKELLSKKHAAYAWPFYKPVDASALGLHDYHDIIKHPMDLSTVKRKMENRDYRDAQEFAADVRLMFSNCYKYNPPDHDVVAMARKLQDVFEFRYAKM
T2 sequence (Q15059 34-140 limits assumed): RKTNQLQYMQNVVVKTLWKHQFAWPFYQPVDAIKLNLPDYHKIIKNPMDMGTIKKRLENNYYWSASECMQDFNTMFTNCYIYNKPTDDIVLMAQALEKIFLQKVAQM

solubility [1]: 50 µM (≈ 20.3 µg/mL) | CYPs and UGTs “dual‐activity” microsomal stability (percentage of the parent compound turnover) [2]: 7.5±1.0% | Papp at 24 h, 0.2 mM (in vitro): 1.1 ×10⁻⁶ cm/s
SMILES: Cc1cc(/N=N/c2ccc(S(=O)(=O)Nc3ccc(C#N)cc3)cc2)cc(C)c1O [7 b, MS611]
Ki (BRD4 BD2): 41.3 µM | Ki (BRD4 BD1): 410 nM | Selectivity between BD1 and BD2 of BRD2 and BRD3 (words) [3]: almost no selectivity between each BDs domain of BRD3 and BRD2 | Selectivity between BD1 and BD2 of BRD2 and BRD3 (words) ([3]; listed as MS611): almost no difference in binding affinity between BD1 and BD2 of BRD2 and BRD3

SMILES: Cc1cc(-c2nc3ccc(S(=O)(=O)Nc4ccccn4)cc3[nH]2)cc(C)c1O [9 a, 2‐(4‐hydroxy‐3,5‐dimethylphenyl)‐N‐(pyridin‐2‐yl)‐1H‐benzo[d]imidazole‐6‐sulfonamide]
Solubility at 100 μM ([1]; 100 μM, aqueous solution with 1 % DMSO): still soluble | solubility [1]: 100 µM (≈ 39.4 µg/mL) | IC50 (BRD3(BD1)): 180 ± 20 nM | CYPs and UGTs “dual‐activity” microsomal stability (percentage of the parent compound turnover) [2]: 1.0±0.3% | IC50 (BRD2(BD2)): 22 ± 8 µM | IC50 (BRD3(BD2)): 7 ± 3 µM | ΔTm screening against BET bromodomains [4]: increase in the melting temperature of all BET proteins | Decrease of cell viability (HeLa cells): around 30% | IC50 (BRD2(BD1)): 126 ± 19 nM | Papp at 24 h, 0.2 mM (in vitro): 0.107 ×10⁻⁶ cm/s

SMILES: COCc1nc2cnc3cc(-c4c(C)noc4C)c(OC[C@H]4CCNC4)cc3c2n1[C@H](C)c1ccccc1 [Compound 5, GSK778]
Pharmacokinetic properties [5]: poor pharmacokinetic properties

SMILES: Cc1cc2c(-c3ccco3)cnc(N[C@@H]3CCN(C)C[C@H]3C(=O)NC3CCCCC3)c2[nH]c1=O [Compound 6, GSK789]
IC50 (THP‐1 cell line): 258 nM | IC50 (MV4‐11 cell line): 25 nM | IC50 (HL60 cell line): 390 nM | IC50 (BD1 in all BET proteins): 30 nM | Selectivity for BD1 over BD2 in all BET proteins (BD1 in all BET proteins): 1000 fold

SMILES: CC(=O)NCCCCn1c2c(c3ccccc31)C(=O)NCC2 [Olinone]
Kd (BD1 of BET proteins): 3.4 µM
